Inhibition and melting point data for 15 compounds are collected here from patent publication US7368578B2, “Five-membered heterocyclic compounds” (Takeda Pharmaceutical Company Limited, priority 2002, dated 2008).

One data set addresses T1, human PPARγ1 (Homo sapiens, UniProt P37231).
T1 construct: expressed in transfected cells; host or cells: CHO-K1 cells stably transfected with pVgRXR2-hPPARγ and reporter plasmid pGL3-4ERPP-TK neo
T1 sequence (P37231 1-477 isoform P37231-2): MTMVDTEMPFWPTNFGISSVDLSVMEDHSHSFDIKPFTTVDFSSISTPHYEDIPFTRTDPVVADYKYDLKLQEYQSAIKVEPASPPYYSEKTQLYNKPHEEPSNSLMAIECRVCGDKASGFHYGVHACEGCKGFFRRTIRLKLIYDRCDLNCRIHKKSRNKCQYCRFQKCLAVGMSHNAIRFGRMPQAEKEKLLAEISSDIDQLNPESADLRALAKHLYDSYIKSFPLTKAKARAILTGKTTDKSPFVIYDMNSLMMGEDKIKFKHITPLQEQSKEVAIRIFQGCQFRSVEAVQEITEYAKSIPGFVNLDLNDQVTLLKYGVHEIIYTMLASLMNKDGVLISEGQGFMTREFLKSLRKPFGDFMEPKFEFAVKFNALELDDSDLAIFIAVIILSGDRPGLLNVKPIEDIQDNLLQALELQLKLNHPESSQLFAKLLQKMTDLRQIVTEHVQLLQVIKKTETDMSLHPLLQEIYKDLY
T1 sequence (P19793 1-462 partner): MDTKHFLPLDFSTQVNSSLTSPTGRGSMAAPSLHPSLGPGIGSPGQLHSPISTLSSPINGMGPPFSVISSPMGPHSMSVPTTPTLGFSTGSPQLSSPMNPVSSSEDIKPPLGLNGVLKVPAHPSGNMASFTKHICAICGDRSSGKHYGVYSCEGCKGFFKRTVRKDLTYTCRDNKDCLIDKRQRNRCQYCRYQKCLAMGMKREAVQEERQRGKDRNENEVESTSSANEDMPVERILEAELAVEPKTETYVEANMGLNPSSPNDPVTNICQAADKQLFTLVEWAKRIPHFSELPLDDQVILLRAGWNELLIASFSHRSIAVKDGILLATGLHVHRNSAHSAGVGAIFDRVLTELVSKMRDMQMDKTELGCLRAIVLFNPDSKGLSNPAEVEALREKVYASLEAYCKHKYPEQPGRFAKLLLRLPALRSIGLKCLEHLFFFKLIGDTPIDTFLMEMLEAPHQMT
Kind of data set: Human PPARγ1 antagonist assay (luciferase reporter in PPARγ:RXRα:4ERPP/CHO-K1 cells). It counts as cell-based. To be noted: 10 nM compound A as stimulant, luciferase activity, 24 hrs, read-out: Inhibitory rate (%); for inhibition at 1 µM: test compound 10^−6 M. On the procedure: PPARγ:RXRα:4ERPP/CHO-K1 cells (obtained in Reference Example 5a) cultured in Ham's F-12 medium (GIBCO, Inc.) supplemented with 10% fetal bovine serum (TRACE SCIENTIFIC, Ltd.) were seeded in a well of a 96 well white plate at 2×10^4 cells/well and cultured under 37° C. 5% CO2 conditions for 24 hrs. After removal of the medium, Ham's F-12 medium (GIBCO) containing 60 μl of 0.1% BSA (not containing fatty acid) (Wako Pure Chemical Industries, Ltd.), 20 μl of 10^−5M or 10^−6 M test compound and 20 μl of compound A having a final concentration of 10 nM as a stimulant were added, and the cells were cultured under 37° C. 5% CO2 conditions for 24 hrs. After removal of the medium, 40 μl of Pickagene LT7.5 (Wako Pure Chemical Industries, Ltd.) 2-fold diluted with HBSS (HANKS' BALANCED SALT SOLUTION) (BIO WHITTAKER Inc.) was added. After stirring, luciferase activity was measured using 1420 ARVO Multilabel Counter (Wallac, Inc.). In addition, a test similar to the above was conducted for the non-use of the aforementioned test compound alone and for the non-use of the aforementioned test compound and compound A to determine the luciferase activity.
The human PPARγ1 antagonistic activity of the test compound was evaluated using percentages (% inhibition) wherein the luciferase activity when 10 nM compound A alone was added was 0%, and the luciferase activity when the test compound and compound A were not added was 100%. The concentration of the test compound was 10^−5 M for the compounds of Example 42 and 315 and 10^−6 M for other test compounds.
After a CHO-K1 cell cultured in a cell culture flask (150 cm^2) (produced by Corning Costar Corporation, USA) containing Ham's F-12 medium (produced by Life Technologies, Inc., USA) supplemented with 10% fetal bovine serum (produced by Life Technologies, Inc., USA) was detached by treating with 0.5 g/L trypsin-0.2 g/L EDTA (ethylenediaminetetraacetic acid) (produced by Life Technologies, Inc., USA), the cell was washed with PBS (phosphate-buffered saline) (produced by Life Technologies, Inc., USA), centrifuged (1000 rpm, 5 minutes), and then suspended in PBS. Subsequently, the DNA was introduced into the cells under the conditions shown below using GENE PULSER (produced by Bio-Rad Laboratories, USA).
Namely, to a cuvette having a 0.4 cm gap, added were 8×10^6 cells and 10 μg of plasmid pVgRXR2-hPPARγ obtained in Reference Example 4a and 10 μg of reporter plasmid pGL3-4ERPP-TK neo obtained in Reference Example 2a, which was subjected to electroporation at the voltage of 0.25 kV under the capacitance of 960 μF. Subsequently, the cell was transferred into a Ham's F-12 medium containing 10% fetal bovine serum and cultured for 24 hours and then the cells were detached again and centrifuged, and then suspended in HAM F12 medium containing 10% fetal bovine serum supplemented with 500 μg/ml of GENETICIN (produced by Life Technologies, Inc., USA) and 250 μg/ml of ZEOCIN (produced by Invitrogen, USA). The obtained suspension was diluted to the density of 10^4 cells/ml and inoculated to a 96-well plate (produced by Corning Costar Corporation, USA), which was cultured in a CO2 gas incubator at 37° C., whereby obtaining a GENETICIN- and ZEOCIN-resistant transformant. Subsequently, after the transformant cell line thus obtained was cultured in a 24-well plate (produced by Corning Costar Corporation, USA), selected was a cell line in which the luciferase was expressed and induced, i.e., PPARγ:RXRα:4ERPP/CHO-K1 cell by the addition of 10 μM pioglitazone hydrochloride.
For orientation: In a reporter assay the amount or activity of a reporter protein is the signal.

By melting point is commonly meant the temperature, or range, at which the solid turns liquid. Regarding `Cc1oc(-c2ccco2)nc1COc1ccc(COc2nn(Cc3ccccc3)cc2C=O)cn1` [Example 42, 1-benzyl-3-[(6-{[2-(2-furyl)-5-methyl-1,3-oxazol-4-yl]methoxy}-3-pyridinyl)methoxy]-1H-pyrazole-4-carbaldehyde], the melting point fell in the range of 104 to 105 °C. The inhibition at 10 µM at human PPARγ1 (test compound 10^−5 M) was found to be 50%.
For `CCOC(=O)c1cn(-c2ccccc2)nc1OCc1ccc(OCc2nc(-c3ccco3)oc2C)c(OC)c1` [Example 72, ethyl 3-[(4-{[2-(2-furyl)-5-methyl-1,3-oxazol-4-yl]methoxy}-3-methoxybenzyl)oxy]-1-phenyl-1H-pyrazole-4-carboxylate], the melting point was 150 to 151 °C. On human PPARγ1, the inhibition at 1 µM stood at 62%.
With `COc1cc(COc2nn(-c3ccccc3)cc2CO)ccc1OCc1nc(-c2ccco2)oc1C` [Example 75, {3-[(4-{[2-(2-furyl)-5-methyl-1,3-oxazol-4-yl]methoxy}-3-methoxybenzyl)oxy]-1-phenyl-1H-pyrazol-4-yl}methanol], on human PPARγ1, the inhibition at 1 µM was found to be 70%.
Regarding `COc1cc(COc2nn(-c3ccccc3)cc2C=O)ccc1OCc1nc(-c2ccco2)oc1C` [Example 76, 3-[(4-{[2-(2-furyl)-5-methyl-1,3-oxazol-4-yl]methoxy}-3-methoxybenzyl)oxy]-1-phenyl-1H-pyrazole-4-carbaldehyde], the melting point is 137 to 138 °C. The inhibition at 1 µM on human PPARγ1 came out at 63%.
For `COc1cc(COc2nn(-c3ccccc3)cc2C#N)ccc1OCc1nc(-c2ccco2)oc1C` [Example 77, 3-[(4-{[2-(2-furyl)-5-methyl-1,3-oxazol-4-yl]methoxy)-3-methoxybenzyl)oxy]-1-phenyl-1H-pyrazole-4-carbonitrile], the melting point was in the range of 167 to 168 °C. Besides, the inhibition at 1 µM at human PPARγ1 is 51%.
Take `CCOP(=O)(CCc1cn(-c2ccccc2)nc1OCc1ccc(OCc2nc(-c3ccco3)oc2C)c(OC)c1)OCC` [Example 100, diethyl 2-{3-[(4-{[2-(2-furyl)-5-methyl-1,3-oxazol-4-yl]methoxy}-3-methoxybenzyl)oxy]-1-phenyl-1H-pyrazol-4-yl}ethylphosphonate]: the inhibition at 1 µM at human PPARγ1 worked out at 74%.
Take `CCOP(=O)(/C=C/c1cn(-c2ccccc2)nc1OCc1ccc(OCc2nc(-c3ccco3)oc2C)c(OC)c1)OCC` [Example 116 (E form), diethyl (E)-2-{3-[(4-{[2-(2-furyl)-5-methyl-1,3-oxazol-4-yl]methoxy}-3-methoxybenzyl)oxy]-1-phenyl-1H-pyrazol-4-yl}ethenylphosphonate]: the inhibition at 1 µM on human PPARγ1 was determined as 97%.
On to `CCOP(=O)(/C=C/c1cn(-c2ccccc2)nc1OCc1ccc(OCc2nc(-c3ccc(CC(=O)O)cc3)oc2C)c(OC)c1)OCC` [Example 241, {4-[4-({4-[({4-[(E)-2-(diethoxyphosphoryl)ethenyl]-1-phenyl-1H-pyrazol-3-yl}oxy)methyl]-2-methoxyphenoxy}methyl)-5-methyl-1,3-oxazol-2-yl]phenyl}acetic acid], for which the inhibition at 1 µM at human PPARγ1 is 113%.
Regarding `CCOP(=O)(/C=C/c1cn(-c2ccccc2)nc1OCc1ccc(OCc2nc(-c3cccc(CC(=O)O)c3)oc2C)c(OC)c1)OCC` [Example 249, {3-[4-({4-[({4-[(E)-2-(diethoxyphosphoryl)ethenyl]-1-phenyl-1H-pyrazol-3-yl}oxy)methyl]-2-methoxyphenoxy}methyl)-5-methyl-1,3-oxazol-2-yl]phenyl}acetic acid], on human PPARγ1, the inhibition at 1 µM is 108%.
`CCOP(=O)(/C=C/c1cn(-c2ccccc2)nc1OCc1ccc(OCc2nc(-c3cccc(-c4nnn[nH]4)c3)oc2C)c(OC)c1)OCC` [Example 336, {(E)-2-(3-{[3-methoxy-4-({5-methyl-2-[3-(1H-tetrazol-5-yl)phenyl]-1,3-oxazol-4-yl}methoxy)benzyl]oxy}-1-phenyl-1H-pyrazol-4-yl)ethenyl}phosphonate diethyl]: the inhibition at 1 µM at human PPARγ1 stood at 102%.
With `CCc1nc(/C=C/c2cn(-c3ccccc3)nc2OCc2ccc(OCc3nc(-c4ccc(CC(=O)O)cc4)oc3C)c(OC)c2)cs1` [Example 337, {4-[4-({4-[({4-[(E)-2-(2-ethyl-1,3-thiazol-4-yl)ethenyl]-1-phenyl-1H-pyrazol-3-yl}oxy)methyl]-2-methoxyphenoxy}methyl)-5-methyl-1,3-oxazol-2-yl]phenyl}acetic acid], the inhibition at 1 µM at human PPARγ1 was 110%.
The same measure, in the same setting: with `COc1cc(COc2nn(-c3ccccc3)cc2/C=C/c2csc(C)n2)ccc1OCc1nc(-c2ccc(CC(=O)O)cc2)oc1C` [Example 357, {4-[4-({2-methoxy-4-[({4-[(E)-2-(2-methyl-1,3-thiazol-4-yl)ethenyl]-1-phenyl-1H-pyrazol-3-yl}oxy)methyl]phenoxy}methyl)-5-methyl-1,3-oxazol-2-yl]phenyl}acetic acid] the figure was 103%; with `COc1cc(COc2nn(-c3ccccc3)cc2/C=C/c2csc(C(C)C)n2)ccc1OCc1nc(-c2ccc(CC(=O)O)cc2)oc1C` [Example 361, {4-[4-({4-[({4-[(E)-2-(2-isopropyl-1,3-thiazol-4-yl)ethenyl]-1-phenyl-1H-pyrazol-3-yl}oxy)methyl]-2-methoxyphenoxy}methyl)-5-methyl-1,3-oxazol-2-yl]phenyl}acetic acid], 110%; with `CCc1nc(/C=C/c2cn(-c3ccccc3)nc2OCc2ccc(OCc3nc(-c4ccc(CC(=O)O)cc4)oc3C)c(OC)c2)co1` [Example 369, {4-[4-({4-[({4-[(E)-2-(2-ethyl-1,3-oxazol-4-yl)ethenyl]-1-phenyl-1H-pyrazol-3-yl}oxy)methyl]-2-methoxyphenoxy}methyl)-5-methyl-1,3-oxazol-2-yl]phenyl}acetic acid], 108%.
`COc1cc(COc2nn(-c3ccccc3)cc2/C=C/c2coc(C(C)C)n2)ccc1OCc1nc(-c2ccc(CC(=O)O)cc2)oc1C` [Example 370, {4-[4-({4-[({4-[(E)-2-(2-isopropyl-1,3-oxazol-4-yl)ethenyl]-1-phenyl-1H-pyrazol-3-yl}oxy)methyl]-2-methoxyphenoxy}methyl)-5-methyl-1,3-oxazol-2-yl]phenyl}acetic acid]: on human PPARγ1, the inhibition at 1 µM worked out at 111%.
